According to article PMC6934184, “Selective DNA-PKcs inhibition extends the therapeutic index of localized radiotherapy and chemotherapy” (The Journal of Clinical Investigation, 2019):

Target: T1, PRKX (Homo sapiens, UniProt P51817)
T1 construct: purchased Thermo Fisher Scientific (Life Technologies) SelectScreen
Assay: SelectScreen Z'LYTE
Assay type: biochemical
Outline: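 SelectScreen broad panel; activity (Z'LYTE, Adapta) plus binding formats. ATP: Km app for CSF1R Z'LYTE; 10 for CAMK1 Adapta. Readout = % per kinase.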

T1 sequence (P51817 whole entry): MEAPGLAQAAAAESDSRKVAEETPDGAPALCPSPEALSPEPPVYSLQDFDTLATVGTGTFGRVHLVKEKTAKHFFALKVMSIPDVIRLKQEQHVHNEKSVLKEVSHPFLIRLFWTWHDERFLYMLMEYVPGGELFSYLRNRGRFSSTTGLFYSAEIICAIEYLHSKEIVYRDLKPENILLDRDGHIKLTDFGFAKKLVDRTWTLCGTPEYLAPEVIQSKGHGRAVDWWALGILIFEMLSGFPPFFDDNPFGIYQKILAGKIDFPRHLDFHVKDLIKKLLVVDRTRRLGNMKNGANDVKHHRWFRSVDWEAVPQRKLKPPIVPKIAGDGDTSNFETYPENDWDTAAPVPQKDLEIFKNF

CN(C(=O)CN1CCOCC1)c1ccc2sc3c(-c4cccc5c(=O)cc(N6CC7CCC(C6)O7)oc45)cccc3c2c1 [NU5455]
inhibition at 1 µM: 12.5%
